Test results as given in patent publication US20110294721A1, “ANTIMICROBIAL PEPTIDES” (priority 2008, published 2011).
Like-named read-outs stand apart in the source and are kept apart here. No end group written: not given here.

Columns and labels:
Alternaria alternata = assay: MIC in-vitro inhibition assay, antifungal (Example 2); format: cell-based; settings: complete inhibition of spore germination/mycelial growth; Table 1
Procedure: (§1) In-vitro inhibition assays were performed in sterile flat-bottom 96-well plates (Greiner bio-one, Frickenhausen). Antimicrobial peptides were dissolved in 0.01% acetic acid containing 0.2% BSA (500 μg/ml), filter sterilized and stored at −20° C. For inhibition assays dilutions of peptides ranging from 5 to 200 μg/ml were prepared and 10 μl (antibacterial assay) or 20 μl (antifungal assay) of each concentration was loaded per well.
(§2) Spores of fungi were collected by water washes of sporulating cultures grown on 2% malt extract agar and spore concentration was determined by microscopy. The concentration of the spores was adjusted to 1.5-2×10^3 spores/ml in 2% malt extract medium and 80 μl of fungal spores were added per well. The final peptide concentrations used in the fungal inhibition assays were 0, 2, 4, 10, 20, 40, and 100 μg/ml. After overnight incubation at room temperature the plate were put on a rotary shaker (300 rpm) for further two days to ensure consistantly growth. Antifungal effects of the peptides were determined by a microplate reader (Altemaria, Fusarium) at OD590 nm or by visual screening of the plates (Bottytis, Cladosporium).
(§3) The lowest peptide concentration leading to complete inhibition of bacterial growth or spore germination/mycelial growth (minimal inhibition concentration, MIC) was determined for each organism-peptide combination. For each peptide concentration two identical inhibition assays were performed.

Botrytis cinerea = assay: as above; format: cell-based; settings: complete inhibition of spore germination/mycelial growth; Table 1
Procedure: as §1, §2, §3

Cladosporium herbarum = assay: as above; format: cell-based; settings: complete inhibition of spore germination/mycelial growth; Table 1
Procedure: as §1, §2, §3

Pseudomonas corrugata [1] = settings: Table 2; for LC (lethal concentration): 100% inhibition after at least 4 days of incubation; for MIC: >90% inhibition, 1-2 days at 25° C.
Procedure: as §1
(§4) Bacteria colonies from overnight agar plate cultures were resuspended into 5 ml LB-medium or HPG-medium (OD600 nm=0.08-0.1) and diluted into LB-medium/HPG-medium (1:100). 90 μl of this suspension containing about 10^5-10^6 CFU/ml of tested bacteria were added to each well resulting in final peptide concentrations of 0, 0.5, 1, 2, 5, 10, and 20 μg/ml. […] The lowest concentration, in which there is no observable growth (>90% inhibition) is referred to as minimal inhibitory concentration (MIC). […] For each peptide concentration two identical inhibition assays were performed.

[2] = system: Clavibacter michiganensis; assay: MIC and lethal concentration (LC) assay (Example 3); format: cell-based; settings: Table 2; for LC (lethal concentration): 100% inhibition after at least 4 days of incubation; for MIC: >90% inhibition, 1-2 days at 25° C.
Procedure: as §1, §4

[3] = system: Pectobacterium carotovorum; assay: as above; format: cell-based; settings: Table 2; for LC (lethal concentration): 100% inhibition after at least 4 days of incubation; for MIC: >90% inhibition, 1-2 days at 25° C.
Procedure: as §1, §4

[4] = system: Pseudomonas syringae pv. syringae; assay: as above; format: cell-based; settings: Table 2; for LC (lethal concentration): 100% inhibition after at least 4 days of incubation; for MIC: >90% inhibition, 1-2 days at 25° C.
Procedure: as §1, §4

[5] = system: Pseudomonas syringae pv. tomato; assay: as above; format: cell-based; settings: Table 2; for LC (lethal concentration): 100% inhibition after at least 4 days of incubation; for MIC: >90% inhibition, 1-2 days at 25° C.
Procedure: as §1, §4

Xanthomonas vesicatoria [6] = assay: as above; format: cell-based; settings: Table 2; for LC (lethal concentration): 100% inhibition after at least 4 days of incubation; for MIC: >90% inhibition, 1-2 days at 25° C.
Procedure: as §1, §4

[7] = system: Clavibacter michiganensis sub. michiganensis; settings: complete inhibition of bacterial growth; overnight 25° C.; Table 1
[8] = system: Pectobacterium carotovorum sub. carotovorum
Xanthomonas vesicatoria [9] = system: Xanthomonas vesicatoria
[10] = system: Pseudomonas syringae pv. tomato
[11] = system: Pseudomonas syringae pv. syringae
Pseudomonas corrugata [12] = system: Pseudomonas corrugata
[13] = system: human immundeficiency virus (HIV); format: cell-based; settings: HeLa cells pre-treated 30 min at 37° C.; red fluorescence after 72 h; read-out: IC50, concentration where the infection is decreased by 50% (compared to non-treated controls)
Procedure: Cells were pretreated with 6.3 μg/ml SP13-3 and SP13-14 or buffer for 30 min at 37° C. before addition of virus particles. […] Shown is an overlay of pictures taken under transmitted light and fluorescence after 72 hours incubation. The viability of the HeLa cells was determined by measuring the activity of the mitochondrial dehydrogenase.
To measure the activity of the designed oligopeptides against human immundeficiency virus (HIV) a fluorescence-based reporter system was used. HeLa cells (LC5-RIC) harbour a reporter gene, which regulates in dependency of HIV Rev and Tat proteins the synthesis of a red fluorescing protein. In this way the infection of the HeLa cells (LC5-RIC) is indicated and the infection rate can be quantified using a fluorescence microplate reader.
(§5) Antimicrobial oligopeptides were dissolved in 0.01% acetic acid containing 0.2% BSA (500 μg/ml), filter sterilized and stored at −20° C. […] (in 5% CO2). Afterwards, virus particles were added to the pre-treated HeLa cells and the infection was quantified by measuring red fluorescence with a fluorescence microplate reader after 72 h incubation. The viability of the HeLa cells was determined by measuring the activity of the mitochondrial dehydrogenase according to Lindl and Bauer (1994) and Mosmann (1983).

HeLa cells (LC5-RIC) = format: cell-based, human
Procedure: as §5

Xylella fastidiosa = settings: reported by Kuzina et al (2006); cited from earlier work
[14] = complete inhibition of bacterial growth, overnight 25° C., Table 1

Substance | Minimal inhibition concentration (MIC) (Alternaria alternata) [µg/mL] | Minimal inhibition concentration (MIC) (Botrytis cinerea) [µg/mL] | Minimal inhibition concentration (MIC) (Cladosporium herbarum) [µg/mL] | LC (lethal concentration) (Pseudomonas corrugata [1]) | MIC (Pseudomonas corrugata [1]) | LC (lethal concentration) [2] | MIC [2] | LC (lethal concentration) [3] | MIC [3] | LC (lethal concentration) [4] | MIC [4] | LC (lethal concentration) [5] | MIC [5] | LC (lethal concentration) (Xanthomonas vesicatoria [6]) [µg/mL] | MIC (Xanthomonas vesicatoria [6]) [µg/mL] | Minimal inhibition concentration (MIC) [7] [µg/mL] | IC50 [13] [nM] | negative/toxic effect on test cells (HeLa cells) (HeLa cells (LC5-RIC)) | also measured
KRRLIARILRLAARALVKKR-NH2 [SP13] | >100 | >100 | 20 | 1.0 µg/mL | 0.25 µg/mL | 1.0 µg/mL | 0.25 µg/mL | 10/>10 μg/ml | 10/>10 μg/ml | 0.5/0.5 μg/ml | 0.5/0.5 μg/ml | 5.0/5.0 μg/ml | 5.0/5.0 μg/ml | 0.5 | 0.1 | 2.5 |  |  | Minimal inhibition concentration (MIC) [8]: >40 µg/mL; Minimal inhibition concentration (MIC) (Xanthomonas vesicatoria [9]): 2.5 µg/mL; Minimal inhibition concentration (MIC) [10]: 20 µg/mL; Minimal inhibition concentration (MIC) [11]: 10 µg/mL; Minimal inhibition concentration (MIC) (Pseudomonas corrugata [12]): 2.5 µg/mL
KRRLIARILRLAARALVKKR (also: D-amino acids at unstated positions) [SP13-D] | 20 | >40 | 5 |  |  |  |  |  |  |  |  |  |  |  |  | 10 |  |  | Minimal inhibition concentration (MIC) [8, 14]: >40 µg/mL; Minimal inhibition concentration (MIC) (Xanthomonas vesicatoria [9]; [14]): 2 µg/mL; Minimal inhibition concentration (MIC) [10, 14]: 1 µg/mL; Minimal inhibition concentration (MIC) [11, 14]: 2.5 µg/mL; Minimal inhibition concentration (MIC) (Pseudomonas corrugata [12]; [14]): 40 µg/mL
KRRLALFRLFRLALKLVLKK-NH2 [SP13-11] |  |  |  | >10/>10 μg/ml | >10/>10 μg/ml | 2.5/2.5 μg/ml | 2.5/2.5 μg/ml | >10/>10 μg/ml | >10/>10 μg/ml | >10/>10 μg/ml | >10/>10 μg/ml | 5.0 µg/mL | 2.5 µg/mL | 5.0 | 2.5 |  | 2100 | No negative/toxic effect | 
KRRKLAFRLFRLFLKLVLKK-NH2 [SP13-14] |  |  |  | > 10 µg/mL | 2.5 µg/mL | 2 to 5 µg/mL | 0.5 µg/mL | >10/>10 μg/ml | >10/>10 μg/ml | 10 µg/mL | 5.0 µg/mL | 5.0 µg/mL | 2.5 µg/mL | 2.5 | 0.25 |  | 1200 | No negative/toxic effect | 
Magainin-2 |  |  |  |  |  |  |  |  |  |  |  |  |  |  |  |  |  |  | activity against Xylella fastidiosa (Xylella fastidiosa): active
KRRLILRILRLAIRILVKKR-NH2 [SP13-3] |  |  |  | >10/>10 μg/ml | >10/>10 μg/ml | 10 µg/mL | 2.5 µg/mL | >10/>10 μg/ml | >10/>10 μg/ml | >10/>10 μg/ml | >10/>10 μg/ml | 10/10 μg/ml | 10/10 μg/ml | 10 | 2.5 |  | 2100 | No negative/toxic effect | 
